Key:
Test in all cases: biochemical
Adenosine receptor A2a [1] = target: T1, Adenosine receptor A2a (Homo sapiens, UniProt P29274)
Adenosine receptor A2a [2] = target: T1, Adenosine receptor A2a; remark: listed apart in the source
Description: Inhibition of [3H]CGS-21680 binding to human Adenosine A2a receptor expressed in HEK293 cells; Range 438-749

Adenosine receptor A1 [3] = target: T2, Adenosine receptor A1 (Homo sapiens, UniProt P30542)
T2 sequence (P30542 whole entry): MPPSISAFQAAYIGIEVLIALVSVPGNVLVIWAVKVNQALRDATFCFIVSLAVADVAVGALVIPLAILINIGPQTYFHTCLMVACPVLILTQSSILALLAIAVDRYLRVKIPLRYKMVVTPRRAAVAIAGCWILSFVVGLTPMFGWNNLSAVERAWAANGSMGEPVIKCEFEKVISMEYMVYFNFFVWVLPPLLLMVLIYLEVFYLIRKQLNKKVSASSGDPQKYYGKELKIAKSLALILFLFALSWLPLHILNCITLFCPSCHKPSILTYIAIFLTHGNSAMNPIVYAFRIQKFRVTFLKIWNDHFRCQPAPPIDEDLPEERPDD

Adenosine receptor A2b [4] = target: T3, Adenosine receptor A2b (Homo sapiens, UniProt P29275)
T3 sequence (P29275 whole entry): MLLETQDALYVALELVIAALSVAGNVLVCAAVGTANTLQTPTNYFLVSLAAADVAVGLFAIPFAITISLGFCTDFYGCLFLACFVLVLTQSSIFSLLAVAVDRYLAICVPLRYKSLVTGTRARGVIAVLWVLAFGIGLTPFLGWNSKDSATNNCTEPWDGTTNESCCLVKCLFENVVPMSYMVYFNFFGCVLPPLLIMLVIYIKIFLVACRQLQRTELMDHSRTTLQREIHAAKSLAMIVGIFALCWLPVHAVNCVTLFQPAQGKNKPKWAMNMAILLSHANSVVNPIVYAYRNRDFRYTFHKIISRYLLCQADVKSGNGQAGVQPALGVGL
Description: Inhibition of [3H]DPCPX binding to human Adenosine A2B receptor expressed in HEK cells; range 640-1100

Adenosine receptor A2b [5] = target: T3, Adenosine receptor A2b; remark: listed apart in the source
Description: Inhibition of [3H]DPCPX binding to human Adenosine A2B receptor expressed in HEK cells; Range 3580-12400

Adenosine receptor A1 [6] = target: T2, Adenosine receptor A1; remark: listed apart in the source
Adenosine receptor A2a [7] = target: T1, Adenosine receptor A2a; remark: listed apart in the source
Adenosine receptor A1 [8] = target: T2, Adenosine receptor A1; remark: listed apart in the source
Description: Inhibition of [3H]DPCPX binding to human Adenosine A1 receptor expressed in CHO cells; Range 256-620

Adenosine receptor A2b [9] = target: T3, Adenosine receptor A2b; remark: listed apart in the source
Adenosine receptor A2a [10] = target: T1, Adenosine receptor A2a; remark: listed apart in the source
Description: Inhibition of [3H]CGS-21680 binding to human Adenosine A2A receptor expressed in HEK293 cells

Adenosine receptor A1 [11] = target: T2, Adenosine receptor A1; assay type: cell-based, CHO
Description: Inhibition of [3H]DPCPX binding to human Adenosine A1 receptor expressed in CHO cells

T1 sequence (P29274 whole entry): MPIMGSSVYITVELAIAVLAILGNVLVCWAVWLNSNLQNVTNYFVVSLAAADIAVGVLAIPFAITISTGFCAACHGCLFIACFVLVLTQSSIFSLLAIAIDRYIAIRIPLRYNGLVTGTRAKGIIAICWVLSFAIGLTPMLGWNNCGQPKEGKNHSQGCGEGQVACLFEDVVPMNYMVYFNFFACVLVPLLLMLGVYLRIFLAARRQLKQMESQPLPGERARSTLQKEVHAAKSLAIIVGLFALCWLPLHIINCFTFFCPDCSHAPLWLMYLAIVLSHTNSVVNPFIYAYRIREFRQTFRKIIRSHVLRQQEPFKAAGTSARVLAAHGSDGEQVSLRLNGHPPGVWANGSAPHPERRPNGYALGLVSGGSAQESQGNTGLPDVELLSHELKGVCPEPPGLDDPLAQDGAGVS

Row | IC50 (Adenosine receptor A2a [1]) [µM] | SMILES | further results
1 | 0.2 | CCCCCc1nc2nc[nH]c2c2nc(-c3ccccc3)nn12 | 
2 | 0.056 | CCCCc1nc2nc[nH]c2c2nc(-c3cccc(Cl)c3)nn12 | 
3 | 0.188 | CCCCc1nc2[nH]cnc2c2nc(-c3cccc(C)c3)nn12 | 
4 | 3.8 | CCCCc1nc2nc[nH]c2c2nc(-c3ccc(OCC)cc3)nn12 | Ki (Adenosine receptor A2a [2]): 0.572 µM; Ki (Adenosine receptor A1 [3]): 0.413 µM; Ki (Adenosine receptor A2b [4]): 0.838 µM
5 | 0.047 | CCCCc1nc2[nH]cnc2c2nc(Cc3ccccc3)nn12 | 
6 | 3.3 | CCCCc1nc2nc[nH]c2c2nc(-c3ccc(Br)cc3)nn12 | 
7 | 0.067 | CCCCc1nc2[nH]cnc2c2nc(-c3cccc(OC)c3)nn12 | 
8 | 0.9 | CCCCc1nc2[nH]cnc2c2nc(-c3cccnc3)nn12 | 
9 | 7.8 | CCCCCCc1nc2nc[nH]c2c2nc(-c3ccccc3)nn12 | 
10 | 0.046 | CCCCc1nc2[nH]cnc2c2nc(C)nn12 | 
11 | 0.058 | CCCCc1nc2nc[nH]c2c2nc(-c3ccc(O)cc3)nn12 | 
12 |  | CCCCc1nc2[nH]cnc2c2nc(-c3ccc(N(C)C)cc3)nn12 | Ki (Adenosine receptor A2b [5]): 6.66 µM; Ki (Adenosine receptor A1 [6]): 1.31 µM
13 | 0.12 | CCCc1nc2nc[nH]c2c2nc(-c3ccccc3)nn12 | 
14 | 0.21 | CCCCc1nc2[nH]cnc2c2nc(-c3ccco3)nn12 | 
15 | 0.36 | CCc1nc2[nH]cnc2c2nc(-c3ccccc3)nn12 | 
16 | 1.6 | CCCCc1nc2[nH]cnc2c2nc(-c3ccc(OC)cc3)nn12 | Ki (Adenosine receptor A2a [7]): 0.892 µM; Ki (Adenosine receptor A1 [8]): 0.398 µM; Ki (Adenosine receptor A2b [9]): 1.03 µM
17 | 0.18 | CCCCc1nc2[nH]cnc2c2nc(-c3ccc(C)cc3)nn12 | 
18 | 0.51 | CCCCc1nc2nc[nH]c2c2nc(-c3ccc(F)cc3)nn12 | 
19 | 2.5 | CCCCc1nc2[nH]cnc2c2nc(-c3cc(OC)c(OC)c(OC)c3)nn12 | 
20 |  | COc1ccc(-c2csc3nc(=O)cc(N)n23)cc1 | Ki (Adenosine receptor A2a [10]): > 10 µM; Ki (Adenosine receptor A1 [11]): > 10 µM

Row | SMILES | IC50 (Adenosine receptor A2a [1]) [µM] | further results
21 | Cc1nc2[nH]cnc2c2nc(-c3ccccc3)nn12 | 0.55 | 

Reference: ChEMBL document CHEMBL1135548 (J Med Chem, 2002)
